In ChEMBL document CHEMBL1147998, “Synthesis of pH-sensitive amphotericin B-poly(ethylene glycol) conjugates and study of their controlled release in vitro” (Bioorg Med Chem, 2007):

Assay: Toxicity in iv dosed NMRI mouse after 14 days
Format: organism-based
Conditions: in vivo

C[C@@H]1[C@H](O)[C@@H](C)/C=C/C=C/C=C/C=C/C=C/C=C/C=C/[C@H](O[C@@H]2O[C@H](C)[C@@H](O)[C@H](N)[C@@H]2O)C[C@@H]2O[C@](O)(C[C@@H](O)C[C@@H](O)[C@H](O)CC[C@@H](O)C[C@@H](O)CC(=O)O[C@H]1C)C[C@H](O)[C@H]2C(=O)O [AMPHOTERICIN B]
LD50 at 336 h: 3.7 mg/kg
